Assays:
Enterics [1] = assay: microbial challenge of nonionic oil-in-water emulsion, pool 1; type: cell-based; settings: 0.375% in emulsion
[2] = test system: lymphocyte adhesion to endothelial cells; assay: inhibition of lymphocyte adhesion to endothelial cells; type: cell-based, human
Method: Endothelial cells are grown to confluence and washed thoroughly with basal media prior to the experiment to remove all fetal calf serum. The test compounds are then added to the endothelial culture well and incubated for 2 hours. IL-1β is added to stimulated expression of adhesion molecules on the endothelial cells before lymphocytes are added. Lymphocytes are isolated from blood collected from adult human subjects and added to the endothelial culture wells. PHA is added to stimulate adhesion molecule expression in the lymphocytes and the cultures incubated overnight. After a brief washing procedure, cells are incubated with Rose Bengal, and the number of adherent cells assessed by measuring the absorbance at 570 nm.

[3] = antiirritant effect against Balsam of Peru on ventral forearms of volunteers; type: in vivo, human; settings: 0.1% in hydroalcohol 1:1, applied twenty minutes before Balsam of Peru; Minolta Chromameter; seven volunteers
Method: Seven volunteers with a history of skin sensitivity to Balsam of Peru are chosen for the study.
The test compounds are applied to the ventral forearms of panelists. The material is allowed to absorb for twenty minutes and then Balsam of Peru, an irritant is applied on the test sites. Skin irritation is measured in terms of increase in skin redness. The degree of redness is measured with a Minolta Chromameter and compared with the controls, the positive control being skin treated with Balsam of Peru alone, and the negative control being a skin site treated with 10% cola solution(a known antiirritant), and challenged like the test products.

Yeast [4] = assay: microbial challenge of nonionic oil-in-water emulsion, pool 4; type: cell-based; settings: for concentration of microbes: 0.375% in emulsion
Method: (§1) A nonionic oil-in-water emulsion is prepared containing 0.473% 3-furan carboxylic acid. The formulation is divided into five portions, each one getting an inoculation at day 0, and a reinoculation after three weeks, of one of the following microbial cultures: (1)Enterics; (2) Pseudomonas; (3)Staphylococcus; (4)Yeast; and (5)Mold. The concentration of microbes in each individual formulation is calculated on the day of the inoculation, and then again calculated on day 2, and at the end of one, two, three (pre-reinoculation) and four weeks, at a variety of pH values. These are also compared with formulations containing 2-furan carboxylic acid and an identical series of microbes, and an acid pH control emulsion without a furan carboxylic acid added. All numbers, other than those listed as “<10”, are log base 10; thus, for example, “6.6” is equivalent to the presence of […] bacteria. Entries of <10 indicate less than 10 colony forming units, the lowest level of detection.

[5] = test system: PLA2 enzyme obtained from snake venom; settings: assay concentrations 0.01, 0.1 and 1 mg/ml
Method: The enzyme reaction is accomplished in a cuvette containing […] of phosphate buffered saline. Fluorometric substrate NBD-C6-HPC is solubilized 1 mM in EtOH, and is diluted in the reaction mixture to yield a 10 μM final concentration. The assay is initiated with the addition of 0.001 units per μl of PLA2 enzyme obtained from snake venom. Enzyme activity is monitored either with or without the presence of potential inhibitors. […] Prior to enzyme addition, samples are measured fluorometrically at excitation 470 and emission 570 to determine background level of fluorescensce. Following enzyme addition, samples are monitored every 15 minutes over a 60 minute period.

Pseudomonas [6] = assay: microbial challenge of nonionic oil-in-water emulsion, pool 2; type: cell-based
Method: as §1

Enterics [7] = assay: microbial challenge of nonionic oil-in-water emulsion, pool 1; type: cell-based
Method: as §1

mycobacteria = settings: U.S. Pat. No. 5,387,605; cited from earlier work
Yeast [8] = assay: microbial challenge of nonionic oil-in-water emulsion, pool 4; type: cell-based; settings: 0.375% in emulsion
Mold = assay: microbial challenge of nonionic oil-in-water emulsion, pool 5; type: cell-based; settings: for concentration of microbes: 0.375% in emulsion
Method: as §1

Staphylococcus = assay: microbial challenge of nonionic oil-in-water emulsion, pool 3; type: cell-based; settings: for concentration of microbes: 0.375% in emulsion
Method: The formulation is divided into five portions, each one getting an inoculation at day 0, and a reinoculation after three weeks, of one of the following microbial cultures: (1)Enterics; (2) Pseudomonas; (3)Staphylococcus; (4)Yeast; and (5)Mold. The concentration of microbes in each individual formulation is calculated on the day of the inoculation, and then again calculated on day 2, and at the end of one, two, three (pre-reinoculation) and four weeks, at a variety of pH values. These are also compared with formulations containing 2-furan carboxylic acid and an identical series of microbes, and an acid pH control emulsion without a furan carboxylic acid added. All numbers, other than those listed as “<10”, are log base 10; thus, for example, “6.6” is equivalent to the presence of […] bacteria. Entries of <10 indicate less than 10 colony forming units, the lowest level of detection.

Pseudomonas [9] = assay: microbial challenge of nonionic oil-in-water emulsion, pool 2; type: cell-based; settings: 0.375% in emulsion

## O=C(O)c1ccco1 [2-furan carboxylic acid]
Enterics [1]; pH 3.0, Day 0
  concentration of microbes: 6.6 log base 10
Enterics [1]; pH 3.0, Week 1
  concentration of microbes: <10 colony forming units
Enterics [1]; pH 3.0, Week 2
  concentration of microbes: <10 colony forming units
Enterics [1]; pH 3.0, Week 3
  concentration of microbes: <10 colony forming units
Enterics [1]; pH 3.0, Week 4
  concentration of microbes: <10 colony forming units
Enterics [1]; pH 4.0, Day 0
  concentration of microbes: 6.6 log base 10
Enterics [1]; pH 4.0, Week 1
  concentration of microbes: <10 colony forming units
Enterics [1]; pH 4.0, Week 4
  concentration of microbes: <10 colony forming units
Enterics [1]; pH 5.0, Day 0
  concentration of microbes: 6.6 log base 10
Enterics [1]; pH 5.0, Day 2
  concentration of microbes: >6 log base 10
Enterics [1]; pH 5.0, Week 1
  concentration of microbes: >6 log base 10
Enterics [1]; pH 5.0, Week 3
  concentration of microbes: <10 colony forming units
Enterics [1]; pH 5.0, Week 4
  concentration of microbes: <10 colony forming units
[2]
  inhibition of adhesion of polymorphonuclear leukocytes (PMNs) to activated endothelial cells, in words: ability to inhibit the adhesion
[2]; concentrations of 0.5% and 1%, IL-1β and PHA stimulated
  inhibition of lymphocyte adhesion, in words (absorbance at 570 nm, Rose Bengal): very potent inhibitors of lymphocyte adhesion
[3]
  effectiveness in preventing the onset of irritation (reduction of skin redness): 49%
Yeast [4]
  antimicrobial activity against yeast, in words: very poor level of activity
Yeast [4]; pH 3.0, Day 0
  concentration of microbes: 5.7 log base 10
Yeast [4]; pH 3.0, Day 2
  concentration of microbes: <10 colony forming units
Yeast [4]; pH 3.0, Week 1
  concentration of microbes: <10 colony forming units
Yeast [4]; pH 3.0, Week 3
  concentration of microbes: <10 colony forming units
Yeast [4]; pH 3.0, Week 4
  concentration of microbes: <10 colony forming units
Yeast [4]; pH 4.0, Day 0
  concentration of microbes: 5.7 log base 10
Yeast [4]; pH 4.0, Day 2
  concentration of microbes: 3.7 log base 10
Yeast [4]; pH 4.0, Week 2
  concentration of microbes: <10 colony forming units
Yeast [4]; pH 4.0, Week 3
  concentration of microbes: <10 colony forming units
Yeast [4]; pH 4.0, Week 4
  concentration of microbes: >5.7 log base 10
Yeast [4]; pH 5.0, Day 0
  concentration of microbes: 5.7 log base 10
Yeast [4]; pH 5.0, Day 2
  concentration of microbes: >5.7 log base 10
Yeast [4]; pH 5.0, Week 1
  concentration of microbes: >5.7 log base 10
Yeast [4]; pH 5.0, Week 4
  concentration of microbes: >5.7 log base 10
[5]
  PLA2 inhibition, in words: capable of inhibiting the activity
[5]; calculated from linear fit
  EC-50 of PLA2 inhibition: 0.5 mg/mL
Pseudomonas [6]
  antimicrobial activity against Pseudomonas, in words: does exhibit inhibition
Enterics [7]
  antimicrobial activity against Enterics, in words: does exhibit inhibition
mycobacteria
  antimicrobial activity against mycobacteria, in words: particularly effective
Yeast [8]; pH 3.0, Week 2
  concentration of microbes: <10 colony forming units
Yeast [8]; pH 4.0, Week 1
  concentration of microbes: 3.7 log base 10
Yeast [8]; pH 5.0, Week 2
  concentration of microbes: >5.7 log base 10
Yeast [8]; pH 5.0, Week 3
  concentration of microbes: >5.7 log base 10
Mold
  antimicrobial activity against Mold, in words: very poor level of activity
Mold; pH 3.0, Day 0
  concentration of microbes: 5.2 log base 10
Mold; pH 3.0, Day 2
  concentration of microbes: <10 colony forming units
Mold; pH 3.0, Week 1
  concentration of microbes: <10 colony forming units
Mold; pH 3.0, Week 2
  concentration of microbes: <10 colony forming units
Mold; pH 3.0, Week 3
  concentration of microbes: <10 colony forming units
Mold; pH 3.0, Week 4
  concentration of microbes: <10 colony forming units
Mold; pH 4.0, Day 0
  concentration of microbes: 5.2 log base 10
Mold; pH 4.0, Day 2
  concentration of microbes: 1.6 log base 10
Mold; pH 4.0, Week 1
  concentration of microbes: <10 colony forming units
Mold; pH 4.0, Week 2
  concentration of microbes: <10 colony forming units
Mold; pH 4.0, Week 3
  concentration of microbes: <10 colony forming units
Mold; pH 4.0, Week 4
  concentration of microbes: <10 colony forming units
Mold; pH 5.0, Day 0
  concentration of microbes: 5.2 log base 10
Mold; pH 5.0, Day 2
  concentration of microbes: 5.2 log base 10
Mold; pH 5.0, Week 1
  concentration of microbes: 5.2 log base 10
Mold; pH 5.0, Week 2
  concentration of microbes: 5.2 log base 10
Mold; pH 5.0, Week 3
  concentration of microbes: 3.0 log base 10
Mold; pH 5.0, Week 4
  concentration of microbes: >5 log base 10
Staphylococcus
  antimicrobial activity against Staphylococcus, in words: does exhibit inhibition
Staphylococcus; pH 3.0, Day 0
  concentration of microbes: 6.3 log base 10
Staphylococcus; pH 3.0, Day 2
  concentration of microbes: <10 colony forming units
Staphylococcus; pH 3.0, Week 1
  concentration of microbes: <10 colony forming units
Staphylococcus; pH 3.0, Week 2
  concentration of microbes: <10 colony forming units
Staphylococcus; pH 3.0, Week 3
  concentration of microbes: <10 colony forming units
Staphylococcus; pH 3.0, Week 4
  concentration of microbes: <10 colony forming units
Staphylococcus; pH 4.0, Day 0
  concentration of microbes: 6.3 log base 10
Staphylococcus; pH 4.0, Day 2
  concentration of microbes: <10 colony forming units
Staphylococcus; pH 4.0, Week 1
  concentration of microbes: <10 colony forming units
Staphylococcus; pH 4.0, Week 2
  concentration of microbes: <10 colony forming units
Staphylococcus; pH 4.0, Week 3
  concentration of microbes: <10 colony forming units
Staphylococcus; pH 4.0, Week 4
  concentration of microbes: <10 colony forming units
Staphylococcus; pH 5.0, Day 0
  concentration of microbes: 6.3 log base 10
Staphylococcus; pH 5.0, Day 2
  concentration of microbes: 2.9 log base 10
Staphylococcus; pH 5.0, Week 1
  concentration of microbes: <10 colony forming units
Staphylococcus; pH 5.0, Week 2
  concentration of microbes: <10 colony forming units
Staphylococcus; pH 5.0, Week 3
  concentration of microbes: <10 colony forming units
Staphylococcus; pH 5.0, Week 4
  concentration of microbes: <10 colony forming units
Pseudomonas [9]; pH 3.0, Week 1
  concentration of microbes: <10 colony forming units
Pseudomonas [9]; pH 3.0, Week 3
  concentration of microbes: <10 colony forming units
Pseudomonas [9]; pH 3.0, Week 4
  concentration of microbes: <10 colony forming units
Pseudomonas [9]; pH 4.0, Day 2
  concentration of microbes: <10 colony forming units
Pseudomonas [9]; pH 4.0, Week 3
  concentration of microbes: <10 colony forming units
Pseudomonas [9]; pH 4.0, Week 4
  concentration of microbes: <10 colony forming units
Pseudomonas [9]; pH 5.0, Day 2
  concentration of microbes: >6 log base 10
Pseudomonas [9]; pH 5.0, Week 2
  concentration of microbes: <10 colony forming units
Pseudomonas [9]; pH 5.0, Week 3
  concentration of microbes: <10 colony forming units

Reference: patent US6387947B1, “Antimicrobial cosmetic compositions” (E-L Management Corp., priority 1997, dated 2002)
